{"source": "patent US20260285850A1", "about": "“SUBSTITUTED OXAZOLIDINONES AND IMIDAZOLINONES AS HERBICIDES” (FMC CORPORATION, priority 2023, published 2026)", "type_in_all_cases": "in vivo", "key": {"[1]": {"tested_on": "sedge, umbrella (small-flower umbrella sedge, Cyperus difformis)", "assay": "Test B flooded paddy test, visual plant response rating 0-100", "conditions": "250 g ai/ha, Flood, applied to paddy water, evaluated after 13 days", "method_in_brief": "(§1)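 Treatment occurs at the 2-leaf stage by adding compound to floodwater standing 3 cm above the soil, a level kept for the whole test. Plants stay in the greenhouse 13 days before visual comparison with controls.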"}, "rice (Oryza sativa)": {"tested_on": "rice (Oryza sativa)", "assay": "Test B flooded paddy test, visual plant response rating 0-100", "conditions": "250 g ai/ha, Flood, applied to paddy water, evaluated after 13 days", "method_in_brief": "as §1"}, "[2]": {"tested_on": "ducksalad (Heteranthera limosa)", "assay": "Test B flooded paddy test, visual plant response rating 0-100", "conditions": "250 g ai/ha, Flood, applied to paddy water, evaluated after 13 days", "method_in_brief": "as §1"}, "[3]": {"tested_on": "barnyardgrass (Echinochloa crusgalli)", "assay": "Test B flooded paddy test, visual plant response rating 0-100", "conditions": "250 g ai/ha, Flood, applied to paddy water, evaluated after 13 days", "method_in_brief": "as §1"}, "soybean (Glycine max) [4]": {"tested_on": "soybean (Glycine max)", "assay": "Test A preemergence soil spray, visual injury rating 0-100", "conditions": "10 days", "method_in_brief": "(§2)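 Scale 0–100 (no effect to complete control), visual, versus untreated controls, read 10 days after application. Application: preemergence directed spray onto seeded loam–sand soil, or postemergence to young plants; formulation in non-phytotoxic solvent with surfactant.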"}, "[5]": {"tested_on": "palmer (palmer amaranth, palmer pigweed, Amaranthus palmeri)", "assay": "Test A preemergence soil spray, visual injury rating 0-100", "conditions": "10 days", "method_in_brief": "as §2"}, "kochia (Bassia scoparia) [6]": {"tested_on": "kochia (Bassia scoparia)", "assay": "Test A preemergence soil spray, visual injury rating 0-100", "conditions": "10 days", "method_in_brief": "as §2"}, "[7]": {"tested_on": "ragweed (common ragweed, Ambrosia artemisiifolia)", "assay": "Test A preemergence soil spray, visual injury rating 0-100", "conditions": "10 days", "method_in_brief": "as §2"}, "[8]": {"tested_on": "wheat (Triticum aestivum)", "assay": "Test A preemergence soil spray, visual injury rating 0-100", "conditions": "10 days", "method_in_brief": "as §2"}, "[9]": {"tested_on": "ryegrass, Italian (italian ryegrass, Lolium multiflorum)", "assay": "Test A preemergence soil spray, visual injury rating 0-100", "conditions": "10 days", "method_in_brief": "as §2"}, "[10]": {"tested_on": "green foxtail (Setaria viridis)", "assay": "Test A preemergence soil spray, visual injury rating 0-100", "conditions": "10 days", "method_in_brief": "as §2"}, "[11]": {"tested_on": "blackgrass (Alopecurus myosuroides)", "assay": "Test A preemergence soil spray, visual injury rating 0-100", "conditions": "10 days", "method_in_brief": "as §2"}, "[12]": {"tested_on": "barnyardgrass (Echinochloa crus-galli)", "assay": "Test A preemergence soil spray, visual injury rating 0-100", "conditions": "10 days", "method_in_brief": "as §2"}, "corn (Zea mays) [13]": {"tested_on": "corn (Zea mays)", "assay": "Test A preemergence soil spray, visual injury rating 0-100", "conditions": "10 days", "method_in_brief": "as §2"}, "[14]": {"tested_on": "oat, wild (wild oat, Avena fatua)", "assay": "Test A preemergence soil spray, visual injury rating 0-100", "conditions": "10 days", "method_in_brief": "as §2"}, "soybean (Glycine max) [15]": {"tested_on": "soybean (Glycine max)", "assay": "Test A postemergence application, visual injury rating 0-100", "method_in_brief": "as §2"}, "[16]": {"tested_on": "palmer (palmer amaranth, palmer pigweed, Amaranthus palmeri)", "assay": "Test A postemergence application, visual injury rating 0-100", "method_in_brief": "as §2"}, "kochia (Bassia scoparia) [17]": {"tested_on": "kochia (Bassia scoparia)", "assay": "Test A postemergence application, visual injury rating 0-100", "method_in_brief": "as §2"}, "[18]": {"tested_on": "ragweed (common ragweed, Ambrosia artemisiifolia)", "assay": "Test A postemergence application, visual injury rating 0-100", "method_in_brief": "as §2"}, "[19]": {"tested_on": "wheat (Triticum aestivum)", "assay": "Test A postemergence application, visual injury rating 0-100", "method_in_brief": "as §2"}, "[20]": {"tested_on": "ryegrass, Italian (italian ryegrass, Lolium multiflorum)", "assay": "Test A postemergence application, visual injury rating 0-100", "method_in_brief": "as §2"}, "[21]": {"tested_on": "horseweed (Erigeron canadensis)", "assay": "Test A postemergence application, visual injury rating 0-100", "method_in_brief": "as §2"}, "[22]": {"tested_on": "green foxtail (Setaria viridis)", "assay": "Test A postemergence application, visual injury rating 0-100", "method_in_brief": "as §2"}, "[23]": {"tested_on": "blackgrass (Alopecurus myosuroides)", "assay": "Test A postemergence application, visual injury rating 0-100", "method_in_brief": "as §2"}, "[24]": {"tested_on": "barnyardgrass (Echinochloa crus-galli)", "assay": "Test A postemergence application, visual injury rating 0-100", "method_in_brief": "as §2"}, "corn (Zea mays) [25]": {"tested_on": "corn (Zea mays)", "assay": "Test A postemergence application, visual injury rating 0-100", "method_in_brief": "as §2"}, "[26]": {"tested_on": "oat, wild (wild oat, Avena fatua)", "assay": "Test A postemergence application, visual injury rating 0-100", "method_in_brief": "as §2"}, "[27]": {"conditions": "62 g ai/ha, 0 = no effect, 100 = complete control"}, "[28]": {"conditions": "62 g ai/ha, postemergence, 10 days, 0 = no effect, 100 = complete control"}, "[29]": {"conditions": "Postemergence, 16 g ai/ha, greenhouse 10 days, 0 no effect, 100 complete control"}}, "data": [{"molecule": "COC(=O)COC(=O)C1=CCC(NC(=O)C2(C)CN(c3cc(Cl)cc(Cl)c3)C(=O)O2)C1", "note": "(centres unmarked) [Compound 109]", "values": [{"measurement": "Plant response rating, Sedge, Umbrella (0 to 100 scale, 0 is no effect and 100 is complete control)", "setting": "[1]", "result": 0}, {"measurement": "Plant response rating, Rice (0 to 100 scale, 0 is no effect and 100 is complete control)", "setting": "rice (Oryza sativa)", "result": 0}, {"measurement": "Plant response rating, Ducksalad (0 to 100 scale, 0 is no effect and 100 is complete control)", "setting": "[2]", "result": 0}, {"measurement": "Plant response rating, Barnyardgrass (0 to 100 scale, 0 is no effect and 100 is complete control)", "setting": "[3]", "result": 0}, {"measurement": "Soybean plant response rating", "setting": "soybean (Glycine max) [4]; 16 g ai/ha, 0 to 100 scale", "result": 0}, {"measurement": "Soybean plant response rating (0-100)", "setting": "soybean (Glycine max) [4]; [27]", "result": 0}, {"measurement": "Pigweed, Palmer plant response rating", "setting": "[5]; 16 g ai/ha, 0 to 100 scale", "result": 0}, {"measurement": "Pigweed, Palmer plant response rating (0-100)", "setting": "[5]; [27]", "result": 0}, {"measurement": "Kochia plant response rating", "setting": "kochia (Bassia scoparia) [6]; 16 g ai/ha, 0 to 100 scale", "result": 0}, {"measurement": "Kochia plant response rating (0-100)", "setting": "kochia (Bassia scoparia) [6]; [27]", "result": 0}, {"measurement": "Ragweed plant response rating", "setting": "[7]; 16 g ai/ha, 0 to 100 scale", "result": 0}, {"measurement": "Ragweed plant response rating (0-100)", "setting": "[7]; [27]", "result": 0}, {"measurement": "Wheat plant response rating", "setting": "[8]; 16 g ai/ha, 0 to 100 scale", "result": 0}, {"measurement": "Wheat plant response rating (0-100)", "setting": "[8]; [27]", "result": 0}, {"measurement": "Ryegrass, Italian plant response rating", "setting": "[9]; 16 g ai/ha, 0 to 100 scale", "result": 0}, {"measurement": "Ryegrass, Italian plant response rating (0-100)", "setting": "[9]; [27]", "result": 0}, {"measurement": "Foxtail, Green plant response rating", "setting": "[10]; 16 g ai/ha, 0 to 100 scale", "result": 0}, {"measurement": "Foxtail, Green plant response rating (0-100)", "setting": "[10]; [27]", "result": 0}, {"measurement": "Blackgrass plant response rating", "setting": "[11]; 16 g ai/ha, 0 to 100 scale", "result": 0}, {"measurement": "Blackgrass plant response rating (0-100)", "setting": "[11]; [27]", "result": 0}, {"measurement": "Barnyardgrass plant response rating", "setting": "[12]; 16 g ai/ha, 0 to 100 scale", "result": 0}, {"measurement": "Barnyardgrass plant response rating (0-100)", "setting": "[12]; [27]", "result": 0}, {"measurement": "Corn plant response rating", "setting": "corn (Zea mays) [13]; 16 g ai/ha, 0 to 100 scale", "result": 0}, {"measurement": "Corn plant response rating (0-100)", "setting": "corn (Zea mays) [13]; [27]", "result": 0}, {"measurement": "Oat, Wild plant response rating", "setting": "[14]; 16 g ai/ha, 0 to 100 scale", "result": 0}, {"measurement": "Oat, Wild plant response rating (0-100)", "setting": "[14]; [27]", "result": 0}, {"measurement": "Soybean plant response rating (0-100)", "setting": "soybean (Glycine max) [15]; [28]", "result": 0}, {"measurement": "Soybean plant response rating (0 to 100 scale)", "setting": "soybean (Glycine max) [15]; [29]", "result": 0}, {"measurement": "Pigweed, Palmer plant response rating (0-100)", "setting": "[16]; [28]", "result": 40}, {"measurement": "Pigweed, Palmer plant response rating (0 to 100 scale)", "setting": "[16]; [29]", "result": 0}, {"measurement": "Kochia plant response rating (0-100)", "setting": "kochia (Bassia scoparia) [17]; [28]", "result": 0}, {"measurement": "Kochia plant response rating (0 to 100 scale)", "setting": "kochia (Bassia scoparia) [17]; [29]", "result": 0}, {"measurement": "Ragweed plant response rating (0-100)", "setting": "[18]; [28]", "result": 0}, {"measurement": "Ragweed plant response rating (0 to 100 scale)", "setting": "[18]; [29]", "result": 0}, {"measurement": "Wheat plant response rating (0-100)", "setting": "[19]; [28]", "result": 0}, {"measurement": "Wheat plant response rating (0 to 100 scale)", "setting": "[19]; [29]", "result": 0}, {"measurement": "Ryegrass, Italian plant response rating (0-100)", "setting": "[20]; [28]", "result": 0}, {"measurement": "Ryegrass, Italian plant response rating (0 to 100 scale)", "setting": "[20]; [29]", "result": 0}, {"measurement": "Horseweed plant response rating (0-100)", "setting": "[21]; [28]", "result": 20}, {"measurement": "Horseweed plant response rating (0 to 100 scale)", "setting": "[21]; [29]", "result": 0}, {"measurement": "Foxtail, Green plant response rating (0-100)", "setting": "[22]; [28]", "result": 0}, {"measurement": "Foxtail, Green plant response rating (0 to 100 scale)", "setting": "[22]; [29]", "result": 0}, {"measurement": "Blackgrass plant response rating (0-100)", "setting": "[23]; [28]", "result": 30}, {"measurement": "Blackgrass plant response rating (0 to 100 scale)", "setting": "[23]; [29]", "result": 0}, {"measurement": "Barnyardgrass plant response rating (0-100)", "setting": "[24]; [28]", "result": 20}, {"measurement": "Barnyardgrass plant response rating (0 to 100 scale)", "setting": "[24]; [29]", "result": 0}, {"measurement": "Corn plant response rating (0-100)", "setting": "corn (Zea mays) [25]; [28]", "result": 0}, {"measurement": "Corn plant response rating (0 to 100 scale)", "setting": "corn (Zea mays) [25]; [29]", "result": 0}, {"measurement": "Oat, Wild plant response rating (0-100)", "setting": "[26]; [28]", "result": 0}, {"measurement": "Oat, Wild plant response rating (0 to 100 scale)", "setting": "[26]; [29]", "result": 0}]}]}
